Source: patent US9999218B2, “Pest control formulations and methods of making and using same” (0903608 B.C. Ltd., priority 2011, dated 2018)
Read-outs that look alike come from different tables or passages of the source.

Legend:
adult bed bugs [1] = type: in vivo
bed bug eggs [2] = type: in vivo, Cimex lectularius L.
Source text: Immediately after infestation, and at 1-, 2-, and 3-week intervals thereafter, the numbers of hatched and unhatched eggs present in the sealed dishes were counted and compared to other Treated Groups. One egg was counted as “hatched” for every new nymph present in the petri dish when compared with the prior interval. Table 13 compares the % egg eclosion of the treated groups at the 3-week observation interval. The maximum mortality data obtained in Example 3, above, are included for comparison purposes.

adult bed bugs [3] = system: adult bed bugs
Method: This example illustrates the dry residual pesticidal activity of formulations comprising varying pesticidal natural oils (oregano, clove and cinnamon oils) with acetophenone as the polar aromatic solvent. Solutions were prepared using 5.5% by weight natural oil; the percent by weight of acetophenone indicated in Table 19 and an appropriate amount of isopropanol as a carrier diluent. The percent by weight of solvent was at a final concentration of 1.5 mol/kg. Solutions were also prepared of each natural oil alone (5.5% by weight with an appropriate amount of isopropanol as a carrier diluent), and of acetophenone alone (the percent by weight indicated in Table 19 with an appropriate amount of isopropanol as a carrier diluent). Treated Groups for each solution were prepared by treating filter paper, 90 mm in diameter, with 1.0 mL of solution and allowing it to air dry for four hours. A known number of adults (usually 10) were added to each treated dish, four hours after treatment. Bed bug mortality was assessed immediately after infestation and at 1-hour, 2-hour, 4-hour, 6-hour, 8-hour, 10 hour, 12-hour, and 24-hour intervals, and at 24-hour intervals thereafter until 14 days after infestation. Adult bed bugs were counted dead if they were unresponsive when stimulated.

adult bed bugs [4] = system: adult bed bugs; remark: listed apart in the source
Method: This example illustrates the dry residual pesticidal activity of formulations comprising further pesticidal natural oils (thyme, garlic and neem oils) with acetophenone as the polar aromatic solvent. Solutions were prepared using 5.5% by weight natural oil; the percentage by weight of organic solvent indicated in Table 20 and an appropriate amount of isopropanol as a carrier diluent. Solvent was added to a final concentration of 1.5 mol/kg. Solutions were also prepared of each natural oil alone (5.5% by weight with an appropriate amount of isopropanol as a carrier diluent), and of the polar organic solvent alone (the percent by weight indicated in Table 20 with an appropriate amount of isopropanol as a carrier diluent). Treated Groups for each solution were prepared by treating filter paper, 90 mm in diameter, with 1.0 mL of solution and allowing it to air dry for four hours. A known number of adults (usually 10) were added to each treated dish, four hours after treatment. Bed bug mortality was assessed immediately after infestation and at 1-hour, 2-hour, 4-hour, 6-hour, 8-hour, 10 hour, 12-hour, and 24-hour intervals, and at 24-hour intervals thereafter until 14 days after infestation. Adult bed bugs were counted dead if they were unresponsive when stimulated.

adult bed bugs [5] = conditions: for LT50: 2 h dried residue on filter paper; for Max Mortality: 2 h dried residue, observed until 33 days
Method: 1.0 mL of each solution was applied to three replicates of filter paper, 90 millimeters in diameter, contained in petri dishes (Treated Groups). Treated Groups and three replicates of an untreated Control Group were allowed to dry for two hours prior to infestation with a known number of adult bed bugs (approximately half male and half female).
Bed bug mortality was assessed immediately after infestation and at 2-, 4-, 8-, 12-, and 24-hour intervals after infestation, and daily thereafter until 33 days after infestation. Adult bed bugs were counted dead if they were unresponsive when stimulated.

bed bug eggs [6] = assay: Prevention of egg emergence by various pesticidal natural oils (Example 11); type: in vivo, Cimex lectularius L.; conditions: for % Eclosion (3 weeks post-infest.): 2 h dried residue, five eggs
Method: Five bed bug eggs were added to each treated dish, two hours after treatment. Immediately after infestation, and at 1-, 2-, and 3-week intervals thereafter, the numbers of hatched and unhatched eggs present in the sealed dishes were counted and compared to other Treated Groups. One egg was counted as “hatched” for every new nymph present in the petri dish when compared with the prior interval. Table 12 compares the mean % egg eclosion of the treated groups at three weeks post-infestation. The maximum mortality data obtained in Example 2, above, are included for each formulation, for comparison purposes.

[7] = […] neem oil + […] named solvent in isopropanol, 4 h dried residue
[8] = […] neem oil + […] named solvent in isopropanol, 4 h dried residue, observed until 14 days
[9] = […] neem oil + named solvent in isopropanol, 4 h dried residue, 3 weeks after infestation
[10] = 4 h dried residue on filter paper
[11] = […] by weight oil and/or 18.25% w/w acetophenone in isopropanol, 4 h dried residue on filter paper
[12] = time of maximum mortality, 4 h dried residue on filter paper
[13] = […] oil + 5.0% acetophenone + […] sodium lauryl sulphate in water
[14] = […] oil + 5.0% ethyl lactate + […] sodium lauryl sulphate in water
[15] = […] by weight oil with 5.0% acetophenone, all observation intervals

Molecule: CC(=O)c1ccccc1 [Acetophenone]
- Time to Max Mortality (adult bed bugs [1]; [7]): 24 h
- Max. Mortality (adult bed bugs [1]; [8]): 100%
- % Eclosion (bed bug eggs [2]; [9]): 0%
- LT50 (adult bed bugs [3]; [10]): 17 h
- Max Mortality (adult bed bugs [3]; [11]): 100%
- Time (adult bed bugs [3]; [12]): 53 h
- LT50 (adult bed bugs [4]; [10]): 11 h
- Max Mortality (adult bed bugs [4]; [11]): 100%
- Time (adult bed bugs [4]; [12]): 48 h

Molecule: C=CCc1ccc(O)c(OC)c1 [Eugenol]
- LT50 (adult bed bugs [5]; [13]): 2.82 h
- Max Mortality (adult bed bugs [5]; [13]): 100%
- LT50 (adult bed bugs [5]; [14]): 9.91 h
- Max Mortality (adult bed bugs [5]; [14]): 100%
- prevention of egg eclosion (bed bug eggs [6]; [15]): some increased prevention of egg emergence
- % Eclosion (3 weeks post-infest.) (bed bug eggs [6]; […] oil + 5.0% acetophenone in water): 20%
- % Eclosion (3 weeks post-infest.) (bed bug eggs [6]; […] oil + 5.0% ethyl lactate in water): 40%
- prevention of egg eclosion (bed bug eggs [6]; […] oil combined with 15.5% acetophenone by weight): complete prevention of egg eclosion

Molecule: CCC(C)O (stereo not drawn) [Solution 2-Butanol, 2-Butanol]
- Max. Mortality (adult bed bugs [1]; in vivo): 20%
- Time to Max Mortality (adult bed bugs [1]; in vivo): 336 h
- % Eclosion (bed bug eggs [2]; in vivo): 100%

Molecule: CCCCC(=O)c1ccccc1 [Valerophenone]
- Time to Max Mortality (adult bed bugs [1]; [7]): 24 h
- Max. Mortality (adult bed bugs [1]; [8]): 100%
- % Eclosion (bed bug eggs [2]; [9]): 0%

Molecule: CC(C)=CCC/C(C)=C/CO [geraniol]
- prevention of egg eclosion (bed bug eggs [6]; [15]): complete prevention of egg eclosion

Molecule: Cinnamon Oil
- Max Mortality (adult bed bugs [3]; in vivo): 90%
- Max Mortality (adult bed bugs [4]; in vivo): 100%

Molecule: Neem Oil
- Max Mortality (adult bed bugs [4]; in vivo): 10%
